US20090203658A1, “NEUROACTIVE STEROID COMPOSITIONS AND METHODS OF USE THEREFOR” (Duke University, priority 2007, published 2009)
Marks after values point to notes of the source that are not given here.

How the values were obtained:
healthy male smokers = test: Pilot study of one-time DHEA or PG after overnight abstinence from cigarettes: craving measures; type: in vivo, human; conditions: one-time 400 mg; vs. placebo
Experimental: Elaborating, a pilot study is provided herein, which involves administering one-time DHEA (400 mg), PG (400 mg) or placebo to healthy male smokers following overnight abstinence from cigarettes. […] Thus, neuroactive steroids can be candidate therapeutic molecules for smoking cessation.

[1] = DHEA administration in humans (50 mg); cited from earlier work
brain = conditions: in vivo; cited from earlier work
[2] = test system: subjects with schizophrenia or schizoaffective disorder; test: Randomized placebo-controlled double-blind trial of adjunctive PG: negative and cognitive symptoms (SANS, BACS, MATRICS); type: in vivo, human
Excerpt: Of 21 subjects randomized, 18 completed at least four weeks of treatment (n=9 per group). […] Increases in serum PG levels were positively correlated with cognitive improvement in the PG group, predicting both BACS (r=0.79, n=9, p=0.02; see FIG. 3A) and MATRICS (r=0.70, n=9, p=0.05; see FIG. 3B) composite scores at eight weeks. The mean BACS z-score increase for the PG group was 0.60 (vs. 0.22 for the placebo group). BACS and MATRICS assessments were correlated (r=0.74, p<0.0001).

[3] = test system: subjects with schizophrenia or schizoaffective disorder
[4] = single dose of PG 175 mg; over the course of 5-8 hours; cited from earlier work
rat frontal cortex = test: Neuroactive steroid levels in frontal cortex after chronic lithium or valproate (GC/MS preceded by HPLC); type: in vivo, Male Wistar Kyoto rats; conditions: chronic administration four weeks, n=9
Experimental: Lithium and Valproate Administration.
NS analyses in rat and mouse frontal cortex were performed as described in Marx et al., 2006a; Marx et al., 2006b; and Marx et al., 2006c. Rodent brain tissue was homogenized in 5 volumes of distilled water containing about 2200 cpm (4400 dpm/injection) of tritiated NS (Perkin Elmer, Waltham, Mass.) to detect the HPLC fraction containing the NS of interest. Deuterated ALLO (D4-ALLO, 400 pg) and deuterated PG (D4-PG, 400 pg) were used as internal standards. Supernatants were extracted three times with three volumes of ethyl acetate and dried under nitrogen prior to HPLC purification. […] The limit of NS detection with this method was 2 pg for ALLO and 10 pg for PG. Mean intra-assay coefficients of variation were 3.9% for ALLO and 3.0% for PG.
Statistical Analysis. For rat experiments utilizing chronic lithium and valproate administration, data were analyzed by ANOVA with post-hoc Dunnett tests. Data from Bcl-2 knockout mouse experiments were analyzed by unpaired t-tests.
To that end, NS levels (ALLO and PG) were determined in frontal cortex by negative ion chemical ionization gas chromatography/mass spectrometry in male Wistar Kyoto rats treated chronically with lithium, valproate, or vehicle. NS were also investigated in heterozygous Bcl-2 knockout mice.

[5] = Serum drug levels after chronic lithium or valproate in chow; conditions: chow 1.2 then 2.4 g Li2CO3/kg, four weeks; measured by atomic absorption
Excerpt: Lithium and Valproate Administration. […] Animals were fed with control rodent chow or chow containing a low dose of lithium (1.2 g Li2CO3/kg) or valproate (10 g/kg) for one week to allow the animals to slowly acclimate to the drug, and were then fed with chow containing a full dose of lithium (2.4 g Li2CO3/kg) or valproate (20 g/kg) for three weeks. On the last day of the treatment, animals were sacrificed, and trunk blood was collected to measure lithium and valproate levels in the serum.

[6] = change from baseline (Hillside AE Form), n = 9
[7] = change from baseline (Hillside AE Form), n = 9, mild in all subjects

C[C@]12CC[C@H](O)CC1=CC[C@@H]1[C@@H]2CC[C@]2(C)C(=O)CC[C@@H]12 [DHEA, dehydroepiandrosterone]
craving measures following overnight smoking cessation (healthy male smokers): attenuates craving measures
increase of ALLO [1]: three-fold

CNCCC(Oc1ccc(C(F)(F)F)cc1)c1ccccc1 (stereo not shown) [Fluoxetine]
effect on brain ALLO levels and PG levels (brain): elevates

CC(=O)[C@H]1CC[C@H]2[C@@H]3CC=C4C[C@@H](O)CC[C@]4(C)[C@H]3CC[C@]12C [PG, pregnenolone]
mean change in SANS scores (improvement) ([2]; PG 50 to 250 mg BID for 8 weeks added to second generation antipsychotics, n=9, placebo 2.33, p=0.05): 10.38
mean BACS z-score increase ([2]; PG group, placebo group 0.22): 0.60
craving measures following overnight smoking cessation (healthy male smokers): attenuates craving measures
AIMS, Barnes Akathisia Scale, Simpson-Angus Scale, blood pressure, pulse, or weight ([3]; PG administration): did not result in a significant change
tolerability ([3]; PG group, n=9): well-tolerated
glucose level, average post-treatment ([3]; average baseline 117.9 mg/dl): 119.0 mg/dL
cholesterol, average post-treatment ([3]; average baseline 185.8 mg/dl): 164.6 mg/dL
QTc intervals on EKG ([3]; baseline (visit 1) vs. week 10 (visit 6)): did not negatively impact
Akathisia [3, 6]: 0 N (%)
All Other Side Effects [3, 6]: 0 N (%)
Blurred Vision [3, 6]: 0 N (%)
Diarrhea [3, 6]: 0 N (%)
Drowsiness [3, 6]: 0 N (%)
Excitation/Agitation [3, 6]: 0 N (%)
Headache [3, 6]: 0 N (%)
Impaired Sexual Performance [3, 6]: 0 N (%)
Insomnia [3, 6]: 0 N (%)
Joint Pain/Stiffness [3, 6]: 0 N (%)
Malaise [3, 6]: 0 N (%)
Nasal Congestion [3, 6]: 0 N (%)
Peripheral Edema [3, 6]: 0 N (%)
Rigidity [3, 6]: 0 N (%)
Sweating [3, 6]: 0 N (%)
Tremor [3, 6]: 0 N (%)
Hypertension ([3]; change from baseline (Hillside AE Form), n = 9, mild (<145/90)): 1 (11%)^b N (%)
Cold Extremities [3, 7]: 1 (11%)^a N (%)
Decreased Interest in Sex [3, 7]: 1 (11%)^a N (%)
Dry mouth [3, 7]: 1 (11%)^a N (%)
Muscle Pain/Stiffness [3, 7]: 1 (11%)^a N (%)
Restlessness [3, 7]: 2 (22%)^a N (%)
Disorientation (to date, address, mayor, or MD name) ([3]; change from baseline pre-randomization (Hillside AE Form), n = 9, mild in all subjects): 2 (22%)^a N (%)
increase in serum ALLO levels after PG administration (eight weeks of PG vs. baseline, schizophrenia subjects): over 5 fold
PGS levels after PG administration (subjects with schizophrenia, baseline vs. 10 weeks): significantly increased
change of serum PG levels [4]: approximately doubled

[Li] [lithium]
mean ALLO levels in rat frontal cortex (rat frontal cortex; 0.75 SEM, vehicle 0.71 ng/g, post-hoc Dunnett p<0.05): 2.42 ng/g
mean PG levels in rat frontal cortex (rat frontal cortex; ±2.95 SEM, vehicle 3.37 ng/g, post-hoc Dunnett p=0.09): 8.19 ng/g
serum lithium level [5]: 0.74 ±0.31 mEq/l
